Measured values: patent publication US7192924B2, “Corticotropin releasing factor 2 receptor agonists” (priority 2002, dated 2007)
pEC50: −log10 of the molar value. Peptide text beside a SMILES is read from it.

Legend:
[1] = target: T1, CRF2R (Homo sapiens, UniProt Q13324); test: CRF2R agonist activity (EC50, Emax), called comparative CRF binding; format: cell-based; details: read-out: CRF2R EC50
T1 sequence (Q13324 1-411): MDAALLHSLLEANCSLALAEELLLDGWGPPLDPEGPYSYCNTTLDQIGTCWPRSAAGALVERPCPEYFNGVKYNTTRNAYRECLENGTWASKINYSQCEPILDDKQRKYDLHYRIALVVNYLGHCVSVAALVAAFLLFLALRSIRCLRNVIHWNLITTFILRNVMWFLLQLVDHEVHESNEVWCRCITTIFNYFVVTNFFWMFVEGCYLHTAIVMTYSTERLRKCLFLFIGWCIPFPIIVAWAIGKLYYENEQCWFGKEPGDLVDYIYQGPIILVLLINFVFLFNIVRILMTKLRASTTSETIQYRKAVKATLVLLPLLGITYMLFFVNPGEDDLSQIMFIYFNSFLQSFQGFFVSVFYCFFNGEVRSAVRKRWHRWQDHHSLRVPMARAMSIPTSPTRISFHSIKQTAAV
In short: (§1)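 Cells expressing only CRF1R or CRF2R (recombinant, or with the other receptor disabled or its signal subtracted) were treated with peptide or vehicle control. Activation was read as cAMP induction in cell lysates or via a cAMP-responsive-element reporter gene.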

[2] = target: T2, CRF1R (Homo sapiens, UniProt P34998); test: CRF1R agonist activity (EC50, Emax), called comparative CRF binding; format: cell-based; details: read-out: CRF1R EC50
T2 sequence (P34998 24-415): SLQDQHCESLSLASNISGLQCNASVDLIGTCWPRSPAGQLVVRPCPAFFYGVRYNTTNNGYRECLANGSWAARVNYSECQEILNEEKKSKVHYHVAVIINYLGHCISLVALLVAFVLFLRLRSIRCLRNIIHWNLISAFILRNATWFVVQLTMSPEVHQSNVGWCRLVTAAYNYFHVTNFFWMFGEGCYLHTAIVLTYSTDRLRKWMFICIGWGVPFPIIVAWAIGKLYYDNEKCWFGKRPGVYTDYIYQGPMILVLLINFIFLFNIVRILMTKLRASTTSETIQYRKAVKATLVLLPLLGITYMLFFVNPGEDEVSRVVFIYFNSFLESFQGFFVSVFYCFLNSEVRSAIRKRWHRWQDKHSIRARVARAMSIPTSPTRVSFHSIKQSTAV
In short: as §1

Row | SMILES | pEC50 [1] | pEC50 [2]
1 | CC[C@H](C)[C@H](NC(=O)[C@H](CCC(N)=O)NC(=O)[C@H](C)NC(=O)[C@H](CC(N)=O)NC(=O)[C@H](CCC(N)=O)NC(=O)[C@H](CCC(=O)O)NC(=O)[C@H](C)NC(=O)[C@H](CCCNC(=N)N)NC(=O)[C@H](CCC(=O)O)NC(=O)[C@H](CCCNC(=N)N)NC(=O)[C@H](CCC(N)=O)NC(=O)[C@H](CO)NC(=O)[C@H](CCC(N)=O)NC(=O)[C@@H](NC(=O)[C@H](CCCCN)NC(=O)[C@H](CCC(=O)O)NC(=O)[C@H](CC(C)C)NC(=O)[C@H](CCC(=O)O)NC(=O)[C@H](CC(C)C)NC(=O)[C@H](CC(C)C)NC(=O)[C@@H](NC(=O)[C@H](CCCNC(=N)N)NC(=O)[C@H](CC(C)C)NC(=O)[C@H](CC(C)C)NC(=O)[C@H](CC(C)C)NC(=O)[C@H](CC(C)C)NC(=O)[C@@H]1CCCN1C(=O)[C@H](CC(C)C)NC(=O)[C@H](CC(=O)O)NC(=O)[C@@H](NC(=O)[C@H](CO)NC(=O)[C@H](CC(C)C)NC(=O)[C@H](CO)NC(=O)[C@@H]1CCCN1C(=O)[C@H](CC(N)=O)NC(=O)[C@@H](N)CC(=O)O)[C@@H](C)CC)[C@@H](C)O)[C@@H](C)O)C(=O)N[C@@H](Cc1ccccc1)C(=O)N[C@@H](C)C(=O)N[C@@H](CCC(N)=O)C(=O)N[C@H](C(N)=O)C(C)C [compound 327] (H-DNPSLSIDLPLLLLRTLLELEKTQSQRERAEQNAQIFAQV-NH2; N-terminus assumed) | 7.55 | ≤ 6.00
2 | CC[C@H](C)[C@H](NC(=O)[C@H](CCCNC(=N)N)NC(=O)[C@H](C)NC(=O)[C@H](CC(N)=O)NC(=O)[C@H](CCC(N)=O)NC(=O)[C@H](CCC(=O)O)NC(=O)[C@H](C)NC(=O)[C@H](CCCNC(=N)N)NC(=O)[C@H](CCC(=O)O)NC(=O)[C@H](CCCNC(=N)N)NC(=O)[C@H](CCC(N)=O)NC(=O)[C@H](CO)NC(=O)[C@H](CCC(N)=O)NC(=O)[C@@H](NC(=O)[C@H](CCCNC(=N)N)NC(=O)[C@H](C)NC(=O)[C@H](CC(C)C)NC(=O)[C@H](CCC(=O)O)NC(=O)[C@H](CC(C)C)NC(=O)[C@H](CC(C)C)NC(=O)[C@@H](NC(=O)[C@H](CCCNC(=N)N)NC(=O)[C@H](CC(C)C)NC(=O)[C@H](CC(C)C)NC(=O)[C@H](Cc1ccccc1)NC(=O)[C@H](CC(C)C)NC(=O)[C@@H]1CCCN1C(=O)[C@H](CC(C)C)NC(=O)[C@H](CC(=O)O)NC(=O)[C@@H](NC(=O)[C@H](CO)NC(=O)[C@H](CC(C)C)NC(=O)[C@H](CO)NC(=O)[C@@H]1CCCN1C(=O)[C@H](CC(N)=O)NC(=O)[C@@H](N)CC(=O)O)[C@@H](C)CC)[C@@H](C)O)[C@@H](C)O)C(=O)N[C@@H](Cc1ccccc1)C(=O)N[C@@H](C)C(=O)N[C@@H](CCCNC(=N)N)C(=O)N[C@H](C(N)=O)C(C)C [compound 329] (H-DNPSLSIDLPLFLLRTLLELARTQSQRERAEQNARIFARV-NH2; N-terminus assumed) | 8.29 | ≤ 6.00
3 | CC[C@H](C)[C@H](NC(=O)[C@H](CCCNC(=N)N)NC(=O)[C@H](C)NC(=O)[C@H](CC(N)=O)NC(=O)[C@H](CCC(N)=O)NC(=O)[C@H](CCC(=O)O)NC(=O)[C@H](C)NC(=O)[C@H](CCCNC(=N)N)NC(=O)[C@H](CCC(=O)O)NC(=O)[C@H](CCCNC(=N)N)NC(=O)[C@H](CCC(N)=O)NC(=O)[C@H](CO)NC(=O)[C@H](CCC(N)=O)NC(=O)[C@@H](NC(=O)[C@H](CCCCN)NC(=O)[C@H](CCC(=O)O)NC(=O)[C@H](CC(C)C)NC(=O)[C@H](CCC(=O)O)NC(=O)[C@H](CC(C)C)NC(=O)[C@H](CC(C)C)NC(=O)[C@@H](NC(=O)[C@H](CCCNC(=N)N)NC(=O)[C@H](CC(C)C)NC(=O)[C@H](CC(C)C)NC(=O)[C@H](Cc1ccccc1)NC(=O)[C@H](CC(C)C)NC(=O)[C@@H]1CCCN1C(=O)[C@H](CC(C)C)NC(=O)[C@H](CC(=O)O)NC(=O)[C@@H](NC(=O)[C@H](CO)NC(=O)[C@H](CC(C)C)NC(=O)[C@H](CO)NC(=O)[C@@H]1CCCN1)[C@@H](C)CC)[C@@H](C)O)[C@@H](C)O)C(=O)N[C@@H](Cc1ccccc1)C(=O)N[C@@H](C)C(=O)N[C@@H](CCCNC(=N)N)C(=O)N[C@H](C(N)=O)C(C)C [compound 331] (H-PSLSIDLPLFLLRTLLELEKTQSQRERAEQNARIFARV-NH2; N-terminus assumed) | 8.01 | ≤ 6.00
4 | CC[C@H](C)[C@H](NC(=O)[C@H](CCCNC(=N)N)NC(=O)[C@H](C)NC(=O)[C@H](CC(N)=O)NC(=O)[C@H](CCC(N)=O)NC(=O)[C@H](CCC(=O)O)NC(=O)[C@H](C)NC(=O)[C@H](CCCNC(=N)N)NC(=O)[C@H](CCC(=O)O)NC(=O)[C@H](CCCNC(=N)N)NC(=O)[C@H](CCC(N)=O)NC(=O)[C@H](CO)NC(=O)[C@H](CCC(N)=O)NC(=O)[C@@H](NC(=O)[C@H](CCCCN)NC(=O)[C@H](CCC(=O)O)NC(=O)[C@H](CC(C)C)NC(=O)[C@H](CCC(=O)O)NC(=O)[C@H](CC(C)C)NC(=O)[C@H](CC(C)C)NC(=O)[C@@H](NC(=O)[C@H](CCCNC(=N)N)NC(=O)[C@H](CC(C)C)NC(=O)[C@H](CC(C)C)NC(=O)[C@@H](NC(=O)[C@H](CC(C)C)NC(=O)[C@@H]1CCCN1C(=O)[C@H](CC(C)C)NC(=O)[C@H](CC(=O)O)NC(=O)[C@@H](NC(=O)[C@H](CO)NC(=O)[C@H](CC(C)C)NC(=O)[C@H](CO)NC(=O)[C@@H]1CCCN1)[C@@H](C)CC)[C@@H](C)CC)[C@@H](C)O)[C@@H](C)O)C(=O)N[C@@H](Cc1ccccc1)C(=O)N[C@@H](C)C(=O)N[C@@H](CCCNC(=N)N)C(=O)N[C@H](C(N)=O)C(C)C [compound 332] (H-PSLSIDLPLILLRTLLELEKTQSQRERAEQNARIFARV-NH2; N-terminus assumed) | 8.00 | ≤ 6.00
5 | CC[C@H](C)[C@H](NC(=O)[C@H](CCCNC(=N)N)NC(=O)[C@H](C)NC(=O)[C@H](CC(N)=O)NC(=O)[C@H](CCC(N)=O)NC(=O)[C@H](CCC(=O)O)NC(=O)[C@H](C)NC(=O)[C@H](CCCNC(=N)N)NC(=O)[C@H](CCC(=O)O)NC(=O)[C@H](CCCNC(=N)N)NC(=O)[C@H](CCC(N)=O)NC(=O)[C@H](CO)NC(=O)[C@H](CCC(N)=O)NC(=O)[C@@H](NC(=O)[C@H](CCCCN)NC(=O)[C@H](CCC(=O)O)NC(=O)[C@H](CC(C)C)NC(=O)[C@H](CCC(=O)O)NC(=O)[C@H](CC(C)C)NC(=O)[C@H](CC(C)C)NC(=O)[C@@H](NC(=O)[C@H](CCCNC(=N)N)NC(=O)[C@H](CC(C)C)NC(=O)[C@H](CC(C)C)NC(=O)[C@H](Cc1ccccc1)NC(=O)[C@H](CC(C)C)NC(=O)[C@@H]1CCCN1C(=O)[C@H](CC(C)C)NC(=O)[C@H](CC(=O)O)NC(=O)[C@@H](NC(=O)[C@H](CO)NC(=O)[C@H](CC(C)C)NC(=O)[C@H](CO)NC(=O)[C@@H]1CCCN1C(=O)[C@H](CC(N)=O)NC(=O)[C@@H](N)CC(=O)O)[C@@H](C)CC)[C@@H](C)O)[C@@H](C)O)C(=O)N[C@@H](Cc1ccccc1)C(=O)N[C@@H](CC(=O)O)C(=O)N[C@@H](CCCNC(=N)N)C(=O)N[C@H](C(N)=O)C(C)C [compound 336] (H-DNPSLSIDLPLFLLRTLLELEKTQSQRERAEQNARIFDRV-NH2; N-terminus assumed) | 7.75 | ≤ 6.00
6 | CC[C@H](C)[C@H](NC(=O)[C@H](CCCNC(=N)N)NC(=O)[C@H](C)NC(=O)[C@H](CC(N)=O)NC(=O)[C@H](CCC(N)=O)NC(=O)[C@H](CCC(=O)O)NC(=O)[C@H](C)NC(=O)[C@H](CCCNC(=N)N)NC(=O)[C@H](CCC(=O)O)NC(=O)[C@H](CCCNC(=N)N)NC(=O)[C@H](CCC(N)=O)NC(=O)[C@H](CO)NC(=O)[C@H](CCC(N)=O)NC(=O)[C@@H](NC(=O)[C@H](CCCCN)NC(=O)[C@H](CCC(=O)O)NC(=O)[C@H](CC(C)C)NC(=O)[C@H](CCC(=O)O)NC(=O)[C@H](CC(C)C)NC(=O)[C@H](CC(C)C)NC(=O)[C@@H](NC(=O)[C@H](CCCNC(=N)N)NC(=O)[C@H](CC(C)C)NC(=O)[C@H](CC(C)C)NC(=O)[C@H](CC(C)C)NC(=O)[C@H](CC(C)C)NC(=O)[C@@H]1CCCN1C(=O)[C@H](CC(C)C)NC(=O)[C@H](CC(=O)O)NC(=O)[C@@H](NC(=O)[C@H](CO)NC(=O)[C@H](CC(C)C)NC(=O)[C@H](CO)NC(=O)[C@@H]1CCCN1C(=O)[C@H](CC(N)=O)NC(=O)[C@@H](N)CC(=O)O)[C@@H](C)CC)[C@@H](C)O)[C@@H](C)O)C(=O)N[C@@H](Cc1ccccc1)C(=O)N[C@@H](CC(=O)O)C(=O)N[C@@H](CCCNC(=N)N)C(=O)N[C@H](C(N)=O)C(C)C [compound 338] (H-DNPSLSIDLPLLLLRTLLELEKTQSQRERAEQNARIFDRV-NH2; N-terminus assumed) | 7.71 | ≤ 6.00
